Read-outs that look alike come from different tables or passages of the source.
What was measured:
GSK3 = details: cited from earlier work
MSC80 cells = test: Western blot of MPZ, PMP22 and β-catenin proteins in MSC80 cells; type: cell-based, mouse; details: SB216763 10 µM, after 3h, lasted until 24h
Description: Western blot analysis confirmed the stimulation of MPZ and PMP22 expression. […] This difference may be due to specific mRNA and protein half-life.
The increase in PMP22 protein expression was timedependent.

[1] = GSK3 inhibitors, see Meijer L et al, Trends in Pharmacological Sciences 2004

Row | Molecule | IC50 (GSK3; [1]) | other results
1 | OCCCNc1cc(-c2ccnc(Nc3cccc(Cl)c3)n2)ccn1 [CGP60474, 3-{4-[2-(3-chlorophenylamino)-pyrimidin-4-yl]-pyridin-2-yl-amino}-propanol] | < 100 nM | –
2 | Nc1cccc(-c2cc3c(Oc4cccc(O)c4)ncnc3[nH]2)c1 [TWS119] | < 100 nM | –
3 | CHIR98014 | – | IC50 (GSK3): < 100 nM
4 | Cn1cc(C2=C(c3ccc(Cl)cc3Cl)C(=O)NC2=O)c2ccccc21 [SB216763] | […] | expression of MPZ protein (Western blot) (MSC80 cells): enhanced; expression of PMP22 protein (Western blot) (MSC80 cells): enhanced; expression of β-catenin protein (Western blot) (MSC80 cells): enhanced
5 | CC(=O)O/N=C1/C(=C2/C(=O)Nc3cc(Br)ccc32)Nc2ccccc21 [6-bromoindirubin-3'acetoxime, (2'Z,3'E)-6-Bromoindirubin-3'-acetoxime] | < 100 nM | –
6 | [H]/N=C(/N)SCCCn1cc(C2=C(c3cn(C)c4ccccc34)C(=O)NC2=O)c2ccccc21 [Ro318220] | < 100 nM | –
